The target in this assay is T1, gamma secretase (Homo sapiens, UniProt P49768).
T1 construct: HEK293 cells stably expressing full length Amyloid Precursor Protein (APP); endogenous in cells; host or cells: HEK 293 cells stably expressing full length APP
The assay is described as follows: GSM cell-based assay: Aβ 42 inhibition or reduction in HEK 293 cells over-expressing APP (sandwich ELISA). The conditions noted are these: approximate IC50; HEK293 cells stably expressing full length APP, 24 hours incubation, 10-point dose response starting at 10 μM. An excerpt:
GSM cell-based assays were designed to measure the modulation of Aβ 42 from HEK 293 cells over-expressing APP.
Three simultaneous cell-based assays, namely Aβ 42 inhibition or reduction, Aβ 40 inhibition or reduction and a measurement of cell viability of the cells from which the Aβ 42/40 readout was obtained, together gave an interpretation of gamma secretase modulation (GSM). The assays measure Aβ 42 and Ab 40 from conditioned medium of test compound treated HEK 293 cells.
HEK293 cells stably expressing full length Amyloid Precursor Protein (APP) were plated at a density of 100K cells/well in 96 well plates (Costar). The cells were cultivated for 6 hours at 37° C. and 5% CO2 in DMEM supplemented with 10% FBS. The test compounds were then added to cells in 10-point dose response concentrations with the starting concentration being 10 μM. The compounds were diluted from stock solutions in DMSO and the final DMSO concentration of the test compounds on cells was 0.1%. After 24 hours of incubation with the test compounds the supernatant conditioned media was collected and the Aβ 42, Aβ 40 levels were determined using a sandwich ELISA. A cell viability test (CellTiter-Blue Cell Viability assay, Promega) on the cells from which the conditioned medium was harvested for Aβ 42 or Aβ 40 readouts gave an indication of cell survivability as a possible reason for false positive Aβ 42 or 40 reduction or inhibition readout. The IC50 of the compound (for either Aβ 42 or Aβ 40) was calculated from the percent of control or percent inhibition of Aβ 42 or Aβ 40 as a function of the concentration of the test compound.
The sandwich ELISA to detect Aβ 42 or Aβ 40 was performed in 96 well microtiter plates, which were pre-treated with goat anti-rabbit IgG (Pierce). The capture and detecting antibody pair that were used to detect Aβ 42 and Aβ 40 from cell supernatants were rabbit monoclonal Antibody 42 (RabMAb 42) and affinity purified polyclonal Antibody 40 pAB40 (Biosource) as capture antibodies and biotinylated 6E10 (Signet Labs Inc.) as detection antibody. The optimal concentration for RabMAb 42 was 1 μg/ml in Superblock/TBS (Pierce) that was supplemented with 0.05% Tween 20 (Sigma). The optimal concentration for the pAb40 antibody was 3 μg/ml in Superblock/TBS (Pierce) that was supplemented with 0.05% Tween 20 (Sigma). Optimal concentration for the detection antibody 6E10-biotinylated was 0.5 μg/ml in Superblock/TBS (Pierce) that had been supplemented with 2% normal goat serum and 2% normal mouse serum.
Cellular supernatants were incubated with the capture antibody for 16-20 hours at 4° C., followed by 3 wash steps in TBS-tween (0.05%). The detecting antibody incubation was for 3 hours at 4° C., again followed by the wash steps as described previously. The final readout of the ELISA is Time-Resolved Fluorescence (counts per minute) using Delfia reagents Streptavidin-Europium and Enhancement solutions (Perkin Elmer) and the EnVision Multilabel plate reader (Perkin Elmer).
(An ELISA detects its analyte on a solid surface through an enzyme-linked reagent.)
For orientation: IC50 means the concentration that gives 50% inhibition. A lower IC50 goes with inhibition by little substance. With `Cc1cc(-c2ccc(NC(=O)C3CCCc4ccccc43)cc2)ccn1` (centres unmarked) [Cpd 322], the midpoint of inhibition, the IC50, lay at 2690 nM.
`Cc1cc(-c2ccc(NC(=O)c3cccc(C#N)c3)cc2)ccn1` [Cpd 275] showed an IC50 greater than 10000 nM.
For `Cc1cc(-c2ccc(NC(=O)C(CCF)c3cccc(Br)c3)cc2)ccn1` (centres unmarked) [Cpd 129, 2-(3-bromophenyl)-4-fluoro-N-(4-(2-methyl-4-pyridinyl)phenyl)butanamide] the value was greater than 10000 nM; for `Cc1cc(-c2ccc(NC(=O)C(C)c3ccc(N(CC4CC4)CC4CC4)cc3)cc2)ccn1` (centres unmarked) [Cpd 172], 540 nM.
For `CC(=O)N1CCN(c2ccc(-c3cccc([C@@H](C)C(=O)Nc4ccc(-c5ccnc(C)c5)cc4)c3)cc2)CC1` [Cpd 522] the value was 320 nM; for `COc1ncc(-c2cccc([C@@H](C)C(=O)Nc3ccc(-c4ccnc(C)c4)cc3)c2)cn1` [Cpd 502, (2R)-2-(3-(2-methoxy-5-pyrimidinyl)-phenyl)-N-(4-(2-methyl-4-pyridinyl)-phenyl)propanamide], greater than 10000 nM; for `Cc1cc(-c2ccc(NC(=O)C3CC34CCC4)cc2)ccn1` (centres unmarked) [Cpd 186], greater than 10000 nM.
The same measure for `Cc1cc(-c2ccc(NC(=O)C(C)(C)c3ccc(Cl)cc3)cc2)ccn1` [Cpd 48, 2-(4-chlorophenyl)-2-methyl-N-(4-(2-methyl-4-pyridinyl)phenyl)propanamide]: greater than 10000 nM; for `Cc1cc(-c2ccc(NC(=O)Cc3cc(C(F)(F)F)cc(C(F)(F)F)c3)cc2)ccn1` [Cpd 87, 2-(3,5-bis(trifluoromethyl)phenyl)-N-(4-(2-methyl-4-pyridinyl)phenyl)acetamide]: 461 nM; for `COc1cc(NC(=O)[C@H](C)c2cccc(Br)c2)ccc1-c1ccnc(C)c1` [Cpd 461, (2R)-2-(3-bromophenyl)-N-(3-methoxy-4-(2-methyl-4-pyridinyl)phenyl)propanamide]: 911 nM.
`Cc1cc(-c2ccc(NC(=O)C(CC3CC3)c3cccc(Br)c3)cc2)ccn1` (centres unmarked) [Cpd 163, 2-(3-bromophenyl)-3-cyclopropyl-N-(4-(2-methyl-4-pyridinyl)phenyl)propanamide] had an IC50 of 184 nM.
For `COc1ccc(C(=O)Nc2ccc(-c3ccnc(C)c3)cc2)cc1Cl` [Cpd 37] the value was 567 nM; for `Cc1cc(-c2ccc(NC(=O)C(C)c3cccc(Br)c3)c(C#N)c2)ccn1` (centres unmarked) [Cpd 161, 2-(3-bromophenyl)-N-(2-cyano-4-(2-methyl-4-pyridinyl)phenyl)propanamide], greater than 10000 nM; for `Cc1cc(-c2ccc(NC(=O)[C@H](CC(C)C)c3ccc(-c4ccc(N5CCOCC5)cc4)cc3)cc2)ccn1` [Cpd 131, (2R)-4-methyl-N-(4-(2-methyl-4-pyridinyl)-phenyl)-2-(4′-(4-morpholinyl)-4-biphenylyl)pentanamide], 191 nM.
Turning to `Cc1cc(-c2ccc(NC(=O)Cc3ccccc3OCc3ccccc3)cc2)ccn1` [Cpd 113, 2-(2-(benzyloxy)phenyl)-N-(4-(2-methyl-4-pyridinyl)phenyl)acetamide], the IC50 is greater than 10000 nM.
For `Cc1cc(-c2ccc(NC(=O)c3cc(Cl)nc(Cl)c3)cc2)ccn1` [Cpd 51] the value was greater than 10000 nM.
The same measure for `Cc1cc(-c2ccc(NC(=O)Cc3cccc(Cl)c3)cc2)ccn1` [Cpd 8, 2-(3-chlorophenyl)-N-(4-(2-methyl-4-pyridinyl)phenyl)acetamide]: 790 nM; for `COc1cc(C(C)C(=O)Nc2ccc(-c3ccnc(C)c3)cc2)ccc1N` (centres unmarked) [Cpd 574, 2-(4-amino-3-methoxyphenyl)-N-(4-(2-methyl-4-pyridinyl)phenyl)propanamide]: greater than 10000 nM.
The same measure for `CCN(Cc1cc(OC)c(OC)c(OC)c1)c1ccc(C(C)C(=O)Nc2ccc(-c3ccnc(C)c3)cc2)cc1` (centres unmarked) [Cpd 526, 2-(4-(ethyl(3,4,5-trimethoxybenzyl)amino)-phenyl)-N-(4-(2-methyl-4-pyridinyl)-phenyl)propanamide]: 310 nM; for `Cc1cc(-c2ccc(NC(=O)C(C)c3cccc(-c4ccc(N(C)C)cc4)c3)cc2)ccn1` (centres unmarked) [Cpd 147, 2-(4'-(dimethylamino)-3-biphenylyl)-N-(4-(2-methyl-4-pyridinyl)phenyl)propanamide]: 116 nM; for `Cc1cc(-c2ccc(NC(=O)c3cccc(-c4ccccc4)c3)cc2)ccn1` [Cpd 386]: 874 nM.
As to `Cc1cc(-c2ccc(NC(=O)C(C)c3ccc(N(C)C(C)C)cc3)cc2)ccn1` (centres unmarked) [Cpd 481, 2-(4-(methyl(1-methylethyl)amino)phenyl)-N-(4-(2-methyl-4-pyridinyl)phenyl)-propanamide], the IC50 worked out at 2130 nM.
For `Cc1cc(-c2ccc(NC(=O)C(C)c3ccc4c(c3)[nH]c3ccc(Cl)cc34)cc2)ccn1` (centres unmarked) [Cpd 65, 2-(6-chloro-9H-carbazol-2-yl)-N-(4-(2-methyl-4-pyridinyl)phenyl)propanamide] the value was 108 nM; for `Cc1cccc(C(C(=O)Nc2ccc(-c3ccnc(C)c3)cc2)C(C)C)c1` (centres unmarked) [Cpd 338, 3-methyl-2-(3-methylphenyl)-N-(4-(2-methyl-4-pyridinyl)phenyl)butanamide], 1350 nM.
For `COCCNc1cccc(C(C)C(=O)Nc2ccc(-c3ccnc(C)c3)cc2)c1` (centres unmarked) [Cpd 166] the value was 2840 nM; for `Cc1cc(-c2ccc(NC(=O)Cc3ccc4c(c3)CCO4)cc2)ccn1` [Cpd 116, 2-(2,3-dihydro-1-benzofuran-5-yl)-N-(4-(2-methyl-4-pyridinyl)phenyl)acetamide], 4140 nM; for `Cc1cc(-c2ccc(NC(=O)C3(c4ccc(Cl)cc4)CCC3)cc2)ccn1` [Cpd 310], 573 nM.
The same measure for `Cc1cc(C(C)C(=O)Nc2ccc(-c3ccnc(C)c3)cc2)cc(N2CCC(F)(F)CC2)c1` (centres unmarked) [Cpd 637, 2-(3-(4,4-difluoro-1-piperidinyl)-5-methyl-phenyl)-N-(4-(2-methyl-4-pyridinyl)-phenyl)propanamide]: greater than 10000 nM; for `Cc1cc(-c2ccc(NC(=O)C3CC(=O)c4ccccc43)cc2)ccn1` (centres unmarked) [Cpd 120]: greater than 3330 nM.
`Cc1cc(-c2ccc(NC(=O)c3ccc(CN4CCOCC4)cc3)cc2)ccn1` [Cpd 625] registered an IC50 greater than 3330 nM.
For `COc1cc(C(C)C(=O)Nc2ccc(-c3ccnc(C)c3)cc2)ccc1NC(C)C` (centres unmarked) [Cpd 575, 2-(3-methoxy-4-((1-methylethyl)amino)-phenyl)-N-(4-(2-methyl-4-pyridinyl)-phenyl)propanamide] the value was 1520 nM; for `Cc1cc(-c2ccc(NC(=O)C(C)c3ccc(NCC4CC4)cc3)cc2)ccn1` (centres unmarked) [Cpd 171, 2-(4-((cyclopropylmethyl)amino)phenyl)-N-(4-(2-methyl-4-pyridinyl)phenyl)-propanamide], 2480 nM.
The same measure for `Cc1cc(-c2ccc(NC(=O)C3CCc4ccccc43)cc2)ccn1` (centres unmarked) [Cpd 117]: 3860 nM; for `Cc1cc(-c2ccc(NC(=O)[C@H](CC(C)C)c3cc(F)cc(F)c3)cc2)ccn1` [Cpd 190]: 349 nM; for `Cc1cccc([C@H](CC(C)C)C(=O)Nc2ccc(-c3ccnc(C)c3)cc2)c1` [Cpd 105, (2S)-4-methyl-2-(3-methylphenyl)-N-(4-(2-methyl-4-pyridinyl)phenyl)pentanamide]: 1730 nM.
The same measure for `Cc1cc(-c2ccc(NC(=O)c3cc(C4CC4)on3)cc2)ccn1` [Cpd 22]: 1580 nM; for `Cc1cc(-c2ccc(NC(=O)Cc3ccc(Oc4ccccc4)cc3)cc2)ccn1` [Cpd 112]: 5780 nM; for `Cc1cc(-c2ccc(NC(=O)C(C)c3ccc(NC(C)C)cc3)cc2)ccn1` (centres unmarked) [Cpd 443]: 302 nM.
In turn, `CC[C@H](C(=O)Nc1ccc(-c2ccnc(C)c2)cc1)c1ccccc1` [Cpd 345, (2S)-N-(4-(2-methyl-4-pyridinyl)phenyl)-2-phenylbutanamide] displayed a 50% inhibitory concentration (IC50) of 1870 nM.
As to `Cc1cc(-c2ccc(NC(=O)Cc3ccc(OC(F)(F)F)cc3)cc2)ccn1` [Cpd 110, N-(4-(2-methyl-4-pyridinyl)phenyl)-2-(4-(trifluoromethoxy)phenyl)acetamide], the 50% inhibitory concentration (IC50) came out at 3270 nM.
The same measure for `CCC(C(=O)Nc1ccc(-c2ccnc(C)c2)cc1)c1cccc(C)c1` (centres unmarked) [Cpd 200, 2-(3-methylphenyl)-N-(4-(2-methyl-4-pyridinyl)phenyl)butanamide]: 1050 nM.

Values taken from patent US20110166132A1, “Gamma Secretase Modulators” (Amgen Inc., priority 2007, published 2011).
